Data set [1] deals with MV-4-1 1 cells (MLL-AF4). Kind of data set: Proliferation assay (spheroid-like growth, 8 d, live-cell imaging), MV-4-11. It is filed as cell-based, human. Particulars: Homo sapiens, MV4-11, 192 h, MV-4-11 cells, absolute IC50 from AUC of confluence, read-out: (3) Spheroid assay MV-4-11 (IC50 (μM)). The protocol: The anti-proliferative effect of menin/MLL protein/protein interaction inhibitor test compounds was assessed in human leukemia cell lines. The cell lines MV-4-1 1 and MOLM14 harbor MEL translocations and express the MEL fusion proteins MLL-AF4 and MLL-AF9, respectively, as well as the wildtype protein from the second allele. […] K562 was used as a control cell line containing two MLL wildtype alleles in order to exclude compounds that display general cytotoxic effects.
MV-4-1 1 and MOLM14 were cultured in RPMI-1640 (Sigma Aldrich) supplemented with 10% fetal bovine serum (HyClone), 2 mM L-glutamine (Sigma Aldrich) and 50 μg/ml gentamycin (Gibco). K562 were propagated in RPMI-1640 (Sigma Aldrich) supplemented with 20% fetal bovine serum (HyClone), 2 mM L-glutamine (Sigma Aldrich) and 50 μg/ml gentamycin (Gibco).
In order to assess the anti-proliferative effects, 1,500 MV-4-1 1, 300 MOLM14 or 750 K562 cells were seeded in 200 μl media per well in 96-well round bottom, ultra-low attachment plates (Costar, catalogue number 7007). Cell seeding numbers were chosen based on growth curves to ensure linear growth throughout the experiment. Test compounds were added at different concentrations and the DMSO content was normalized to 0.3%>. Cells were incubated for 8d at 37° C. and 5% C02. Spheroid like growth was monitored in real-time by live-cell imaging (IncuCyteZOOM, Essenbio, 4× objective) acquiring one image every four hours for 8d. Confluence (%) as a measure of spheroid size was determined using an integrated analysis tool.
In order to determine the cumulative effect of the test compounds over time, the area under the curve (AUC) in a plot of confluence against time was calculated. Confluence at the beginning of the experiment (t=0) was used as baseline for the AUC calculation.
Absolute IC50 values were calculated according to the following procedure: % Control=(AUC sample/AUC control)*100 AUC control=mean AUC of control values(cells without compound/DMSO as vehicle control)
A non-linear curve fit was applied using the least squares (ordinary) fit method to the plot of % control versus compound concentration. Based on this, the absolute IC50 value (half maximal inhibitory concentration of the test compound causing an anti-proliferative effect of 50% relative to the vehicle control) was calculated.

The target of data set [2] is T1, terbium chelate-labeled menin / FITC-MBM1 peptide (Menin/MLL) (Homo sapiens, UniProt O00255, T541A).
T1 construct: Menin (a. a. l-610-6×his tag) was labeled with terbium cryptate as follows
T1 sequence (O00255 with tags, fused parts or gaps T541A): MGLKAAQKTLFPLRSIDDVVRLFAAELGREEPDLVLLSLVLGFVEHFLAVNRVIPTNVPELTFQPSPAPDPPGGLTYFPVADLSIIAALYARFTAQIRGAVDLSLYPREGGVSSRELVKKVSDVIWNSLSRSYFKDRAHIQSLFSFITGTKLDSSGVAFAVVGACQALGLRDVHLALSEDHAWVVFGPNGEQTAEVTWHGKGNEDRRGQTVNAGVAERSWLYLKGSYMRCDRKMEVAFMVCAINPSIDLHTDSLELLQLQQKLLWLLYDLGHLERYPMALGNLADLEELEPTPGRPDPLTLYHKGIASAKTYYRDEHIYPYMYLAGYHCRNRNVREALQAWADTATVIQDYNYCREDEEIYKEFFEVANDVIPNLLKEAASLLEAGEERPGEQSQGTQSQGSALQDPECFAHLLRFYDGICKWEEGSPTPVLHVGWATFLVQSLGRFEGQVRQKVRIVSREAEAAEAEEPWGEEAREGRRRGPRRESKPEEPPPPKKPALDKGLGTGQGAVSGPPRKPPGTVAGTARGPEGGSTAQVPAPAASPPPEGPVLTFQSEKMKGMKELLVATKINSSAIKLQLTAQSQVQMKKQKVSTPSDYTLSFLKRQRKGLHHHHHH
Kind of data set: Menin/MLL homogenous time-resolved fluorescence (HTRF) assay. The format is binding. Particulars: read-out: (2) Menin HTRF assay (IC50 (nM)). The protocol:
2) Menin/MLL Homogenous Time-Resolved Fluorescence (HTRF) Assay
To an untreated, white 384-well microtiter plate was added 40 nL 200× test compound in DMSO and 4 μL 2× terbium chelate-labeled menin (vide infra for preparation) in assay buffer (40 mM Tris .HCl, pH 7.5, 50 mM NaCl, 1 mM DTT and 0.05% Pluronic F-127). After incubation of test compound and terbium chelate-labeled menin for 5 min at ambient temperature, 4 μL 2×FITC-MBM1 peptide (FITC-P-alanine-SARWRFPARPGT-NH2) in assay buffer was added, the microtiter plate centrifuged at 1000 rpm for 1 min and the assay mixtures incubated for 15 min at ambient temperature. The relative amount of menin ⋅FITC-MBM1 complex present in an assay mixture is determined by measuring the homogenous time-resolved fluorescence (HTRF) of the terbium/FITC donor/acceptor fluorphore pair using a BMG Pherastar plate reader (ex. 337 nm/terbium cm. 490 nm/FITC cm. 520 nm) at ambient temperature. The degree of fluorescence resonance energy transfer (the HTRF value) is expressed as the ratio of the fluorescence emission intensities of the FITC and terbium fluorophores (P^m 520 nm//F^em 490 nm). The final concentrations of reagents in the binding assay are 100 pM terbium chelate-labeled menin, 75 nM FITC-MBM1 peptide and 0.5%) DMSO in assay buffer. Dose-response titrations of test compounds are conducted using an 11 point, three-fold serial dilution scheme, starting typically at 25 μM.
Compound potencies were determined by first calculating % inhibition at each compound concentration according to equation 1: % inhibition=((HC−LC)−(HTRF^compound−LC))/(HC−LC))*100 (Eqn 1)
Where LC and HC are the HTRF values of the assay in the presence or absence of a saturating concentration of a compound that competes with FITC-MBM1 for binding to menin, and HTRF^compound is the measured HTRF value in the presence of the test compound. HC and LC HTRF values represent an average of at least 16 replicates per plate.
Where Bottom and Top are the lower and upper asymptotes of the dose-response curve, respectively, IC50 is the concentration of compound that yields 50% inhibition of signal and h is the Hill coefficient.
Preparation of Terbium cryptate labeling of Menin: Menin (a. a. l-610-6×his tag) was labeled with terbium cryptate as follows. 2 mg of Menin was buffer exchanged into 1× phosphate buffered saline. 16 uM Menin was incubated with 4-fold molar excess NHS-terbium cryptate (Cisbio Bioassays, Bedford, Mass.) for 2 hours at room temperature. The labeled protein was purified away from free label by running the reaction over a Superdex 200 Increase 10/300 GL column at 0.75 ml/min. Peak fractions were collected, aliquoted and frozen at −80° C.
For orientation: Time-resolved FRET reads energy transfer from a long-lived donor to a nearby acceptor.

Where “and” joins values, the source holds several entries; their conditions need not be identical. Identical values can stand only once. Counter-ions that a name gives are not always drawn.

Our source for the IC50 and melting point values is patent publication US11530226B2, “Azepane inhibitors of menin-MLL interaction” (Janssen Pharmaceutica NV, priority 2016, dated 2022).

The term IC50 denotes the point on the concentration scale where inhibition reaches its midpoint. By melting point is commonly meant the temperature, or range, at which the solid turns liquid. For `FC(F)(F)Cc1cc2c(N3CCCC(N4Cc5ccccc5C4)CC3)ncnc2s1` (centres unmarked) [Compound 6], the melting point is 111 °C and 111.41 °C. The half-inhibitory concentration (IC50) in data set [1] was 2.2 µM. Further, the IC50 in data set [2] stood at 60 nM.
In turn, `FC(F)(F)Cc1cc2c(N3CCCC(Oc4ccccc4)CC3)ncnc2s1` (centres unmarked) [Compound 15] registered a melting point of 110 °C. In data set [2], the half-inhibitory concentration (IC50) came out at 606 nM.
In turn, `FC(F)CN[C@@H]1CCCN(c2ncnc3sc(CC(F)(F)F)cc23)CC1` (as salt: hydrochloride) [Compound 5] returned a melting point of 244 °C.
Compound `FC(F)(F)Cc1cc2c(N3CCC[C@@H](NCc4ccccc4)CC3)ncnc2s1` (as salt: HCl) [Compound 3, (R)N-benzyl-1-(6-(2,2,2-trifluoroethyl)thieno[2,3-d]pyrimidin-4-yl)azepan-4-amine] gave a melting point of 130 °C.
For `C[C@@H](N[C@H]1CCCN(c2ncnc3sc(CC(F)(F)F)cc23)CC1)c1cnn(C)c1` (single isomer, unassigned) (as salt: HCl) [Compound 54D], the melting point came out at 160 °C.
Compound `CC(C)[C@@H](N[C@H]1CCCN(c2ncnc3sc(CC(F)(F)F)cc23)CC1)C1CNC1` (single isomer, unassigned) (as salt: hydrochloride) [Compound 36] had a melting point of 208 °C.
`CC(C)[C@H](N[C@H]1CCCN(c2ncnc3sc(CC(F)(F)F)cc23)CC1)C1CNC1` (single isomer, unassigned) (as salt: hydrochloride) [Compound 32] yielded a melting point of 190 °C.
The same measure, in the same setting: the value for `Fc1ccc(CN[C@H]2CCCN(c3ncnc4sc(CC(F)(F)F)cc34)CC2)c(F)c1` (single isomer, unassigned) (as salt: hydrochloride) [Compound 7B] was 180 °C; that for `CC(C)[C@@H](N[C@@H]1CCCN(c2ncnc3sc(CC(F)(F)F)cc23)CC1)C1CNC1` (single isomer, unassigned) (as salt: hydrochloride) [Compound 35] was 193 °C; that for `CC(C)[C@H](NC1CCCN(c2ncnc3sc(CC(F)(F)F)cc23)CC1)C1CNC1` (single isomer, unassigned) (as salt: hydrochloride) [Compound 33] was 200 °C.
As to `CN(C)CCCNC1CCCN(c2ncnc3sc(CC(F)(F)F)cc23)CC1` (centres unmarked) (as salt: hydrochloride) [Compound 62], the melting point turned out to be 130 °C.
On to `C[C@H](N[C@@H]1CCCN(c2ncnc3sc(CC(F)(F)F)cc23)CC1)c1cnn(C)c1` (single isomer, unassigned) (as salt: HCl) [Compound 54B], for which the melting point came out at 160 °C.
`Cc1ccc(CN[C@@H]2CCCN(c3ncnc4sc(CC(F)(F)F)cc34)CC2)c(C)c1` (single isomer, unassigned) (as salt: hydrochloride) [Compound 9A]: the melting point was 156 °C.
In the case of `FC(F)(F)Cc1cc2c(N3CCC[C@H](NCc4ccccc4)CC3)ncnc2s1` (as salt: HCl) [Compound 4, (S)-N-benzyl-1-(6-(2,2,2-trifluoroethyl)thieno[2,3-d]pyrimidin-4-yl)azepan-4-amine], the melting point came to 230 °C.
Regarding `FC(F)(F)Cc1cc2c(N3CCCC(NCC4CCOCC4)CC3)ncnc2s1` (centres unmarked) (as salt: hydrochloride) [Compound 55], the melting point amounted to 110 °C.
Still for that read-out and setting: the value for `Fc1ccc(CN[C@@H]2CCCN(c3ncnc4sc(CC(F)(F)F)cc34)CC2)c(F)c1` (single isomer, unassigned) (as salt: hydrochloride) [Compound 7A] was 176 °C.
In the case of `CN(C)CCN(Cc1ccccc1)[C@@H]1CCCN(c2ncnc3sc(CC(F)(F)F)cc23)CC1` (single isomer, unassigned) (as salt: hydrochloride) [Compound 57A], the melting point is 150 °C.
As for `CC(C)[C@@H](NC1CCCN(c2ncnc3sc(CC(F)(F)F)cc23)CC1)C1CNC1` (single isomer, unassigned) (as salt: hydrochloride) [Compound 34], the melting point came out at 188 °C.
Still for that read-out and setting: the value for `C[C@@H]1CCN(c2ncnc3sc(CC(F)(F)F)cc23)CC[C@@H]1NCc1ccccc1` (single isomer, unassigned) (as salt: hydrochloride) [Compound 68B] was 150 °C; that for `C[C@H]1CCN(c2ncnc3sc(CC(F)(F)F)cc23)CC[C@H]1NCc1ccccc1` (single isomer, unassigned) (as salt: hydrochloride) [Compound 68A] was 134 °C and 136 °C.
`CC(C)NC1CCCN(c2ncnc3sc(CC(F)(F)F)cc23)CC1` (centres unmarked) [Compound 12] had a melting point of 94 °C. In data set [2], the IC50 turned out to be 5790 nM.
In turn, `Cc1ccc(CNC2CCCN(c3ncnc4sc(CC(F)(F)F)cc34)CC2)cc1` (centres unmarked) (as salt: HCl) [Compound 16] showed a melting point of 262 to 264 °C.
On the same count and under the same terms, in the case of `CN(C)CCCCN(Cc1cnn(C)c1)C1CCCN(c2ncnc3sc(CC(F)(F)F)cc23)CC1` (centres unmarked) (as salt: hydrochloride) [Compound 61] it was 110 °C.
On to `Cc1ccc(CN[C@H]2CCCN(c3ncnc4sc(CC(F)(F)F)cc34)CC2)c(C)c1` (single isomer, unassigned) (as salt: hydrochloride) [Compound 9B], for which the melting point was 160 °C.
In the case of `O=C(NC1CCCN(c2ncnc3sc(CC(F)(F)F)cc23)CC1)C1CC2(CC2)CN1` (centres unmarked) (as salt: hydrochloride) [Compound 10B], the melting point worked out at 205 °C.
